US10214507B2, “Carbazole-containing amides, carbamates, and ureas as cryptochrome modulators” (Reset Therapeutics, Inc., priority 2014, dated 2019)

Assays:
[1] = test system: core clock gene mRNAs in livers of ICR mice; experiment: Four day study, liver clock gene mRNA by RT-qPCR, ICR mice; type: in vivo, mouse; details: 50 mg/kg PO BID 4 days
Procedure: Male ICR mice (weighing 30-35 g), obtained from Charles River Laboratories (Hollister, CA), were used for the experiment following at least 3 days of acclimation. Mice were dosed with vehicle (WFI or 10% Kolliphor) or compound (50 mg/kg, dose volume 5 mL/kg, PO) for 4 days BID (twice a day), beginning in the afternoon of the first day. The last dose of compound or vehicle was administered on the morning of harvest. On the day of harvest (6 hours following the final dose), mice were euthanized by CO2 asphyxiation and 50 mg of liver tissue was excised and placed in a tube containing 500 μl of RNA later.
E.Z.N.A.® HP Total RNA Isolation Kits (R6812-01 and the protocol described in the Manual, Revised 2010) were utilized to prepare and isolate RNA from the liver samples. To prepare the RNA samples, 10-30 mg of sample was removed from RNA-Later and placed in a 1.5 ml microfuge tube. GTC lysis buffer (700 μl) was added to the tissue, which was homogenized with a rotor-stator homogenizer (e.g. Tissue-Tearor, Model #985370 BioSpec Products with 4.5 mm probe, Cat. #985370-04), and then centrifuged at full speed (>13,000×g) for 5 minutes. The cleared supernatant was transferred by pipetting to a DNA Clearance Column Pre-inserted in a 2 mL Collection Tube. The assembled column was centrifuged at 13,000×g for 1 minute, and the flow-through was saved. An equal volume (700 μl) of 70% ethanol was added to the lysate and mixed. The sample was then applied to a HiBind RNA spin column placed into a 2 ml collection tube, which was centrifuged at 10,000×g for 60 seconds at room temperature. RNA Wash Buffer I (250 μl) was added by pipetting directly onto a new HiBind RNA column inserted in a 2 ml collection tube. The assembled column was centrifuged at 10,000×g for 60 seconds. The RNA column was placed into a new 2 ml collection tube. DNase I stock solution is pipetted (75 μl) directly onto the surface of the HiBind RNA resin in each column (Using DNAse Digestion with RNase Free DNase Set (E1091): for each HiBind RNA column, the DNase I stock solution was prepared as followed: E.Z.N.A.® DNase I Digestion Buffer 73.5μl, RNase Free DNase I (20 Kunitz/μl) 1.5 μl=Total Volume 75 μl.). The column with bound RNA was incubated at room temperature (25-30° C.) for 15 minutes. RNA Wash Buffer I (500 μl) was added to the column and placed on a bench top for 2 minutes. After centrifuging at 10,000×g for 60 seconds, discarding the flow-through, 500 μl of RNA Wash Buffer II was added and centrifuged at 10,000×g for 60 seconds. Another 500 μl of RNA Wash Buffer II was added and the column assembly was centrifuged at 10,000×g for 60 seconds. The column was centrifuged for 2 minutes at maximum speed to completely dry the HiBind matrix. The column was placed in a clean 1.5 ml microcentrifuge tube and 40-70 μl of molecular biology grade water is added. After sitting for 1 minute, the column was centrifuged for 2 minutes at maximum speed to elute the RNA. The isolated RNA was collected into the collection tube.
RediPlate 96 RiboGreen RNA Quantification Kit (Invitrogen) RediPlate standard curve was prepared by transferring 20 μl reconstituted RNA standard to a RediPlate well reconstituted in 180 μl RediPlate TE buffer. For liver RNAs prepared from 30-100 mg of tissue using a kit similar to the Omega Bio-Tek HP Total RNA Kit and eluted in RNAse-free water in a volume of 50 μl (microliters), 5 μl of the total RNA is diluted in 195 μl of RediPlate TE buffer (1:40 dilution of RNA), mix. After transferring 5 μl to RediPlate well reconstituted in 195 μl TE buffer and incubating 10 min. at RT, Fluorescence Intensity of wells with standards and samples were read in a Tecan M200 with Excitation set at 480 nm and Emission set at 520 nm with the gain set to −70%. Alternatively, one can use the FlexStation 3 with Ex 488 nm and Em 525 nm and a Cutoff of 515 nm.

C57/Bl6J DIO mice = experiment: 7 day dosing in diet-induced obesity (DIO) mouse model; type: in vivo; details: 100 mg/kg PO 7 days
From the text: Male C57/Bl6J DIO mice were obtained from The Jackson Laboratory (Sacramento, Calif.). […] Animals were accustomed to these conditions for at least 2 weeks before experimentation and used at approximately 24 weeks of age.
Significance was accepted when p<0.05.

[2] = test system: Dbp mRNA in whole blood of db/db mice; experiment: Dbp mRNA in whole blood of db/db mice after three daily doses; type: in vivo, mouse; details: 100 mg/kg PO once daily 3 days, ZT7.5
Procedure: For whole blood RNA studies, male db/db mice (9 weeks of age, The Jackson Laboratory, Bar Harbor, Me.) were used for the experiment with n=8 mice for each experimental group. […] On the final day at ZT7.5 (2:30 pm), animals were euthanized using CO2 asphyxiation, and the blood collected from the heart via cardiac puncture. The blood was placed in RNALater solution to 1.5 ml total volume. Total RNA was prepared using an Ambion Mouse RiboPure Blood RNA Isolation Kit AM1951 as follows. Samples were centrifuged for 3 minutes, discarding the supernatant. Two ml of lysis solution was added and vortexed, transferred to a 15 ml tube followed by the addition of […]. Lysis buffer was added to a total volume of 3.8 ml and vortexed. The sample mixture was extracted with 1.5 ml Acid Phenol: Chloroform and the aqueous phase was recovered. After adding 0.5 volumes of 100% ethanol and vortexing, the samples were passed through a filter column provided in the kit and washed with 750 microliters of wash buffer 1. The filter was washed with 2 passes of 750 microliters wash buffer ⅔ and dried. RNA was eluted in 200 microliters of molecular biology grade water (RNase-free).
The levels of core clock gene mRNAs in whole blood may provide a non-invasive method of determining effects of compounds in treated subjects. […]

In the case of `O=C1NCCN1CC(O)Cn1c2ccc(F)cc2c2cc(F)ccc21` (stereo not drawn) [Compound 72, 1-(3-(3,6-difluoro-9H-carbazol-9-yl)-2-hydroxypropyl)imidazolidin-2-one], the Cry2 transcripts ([1]; ICR mice liver) is reported as “decrease”, the “increase in Bmal1 mRNA at ZT6” value ([1]; ICR mice liver) is reported as 4 fold and the “liver Per2 expression” value ([1]; ICR mice, ZT6) is reported as “suppression”. The HOMA-IR (C57/Bl6J DIO mice) was 32.54+/−3.37 units, the fasting blood glucose (C57/Bl6J DIO mice) was 177.1 ± 8.28 mg/dL and the “glucose AUC calculated from the OGTT” value (C57/Bl6J DIO mice) was 17055+/−769.1. For the same molecule, the “plasma insulin at t=0” value (C57/Bl6J DIO mice) was 3.12 ± 0.24 ng/mL, the “plasma insulin at t=2 hr” value (C57/Bl6J DIO mice) was 2.88 ± 0.21 ng/mL and the “Dbp gene expression in whole blood” value [2] was “statistically significant suppression”.
